System: HCT 116 colon adenocarcinoma cells
Assay: Cell Proliferation Procedure (SRB, three days)
Type: cell-based
Details: for IC50: growth for 3 days, SRB, single agent, read-out: IC50 value, drug alone
Method: Cell Proliferation Procedure—HCT 116 colon adenocarcinoma cells were maintained in RPMI 1640 medium (Life Technologies, Inc., Gaithersburg, Md.) supplemented with 10% fetal bovine serum (FBS, Life Technologies) and 50 μg/ml gentamicin (Life Technologies) under 7% CO2 at 37° C. Cells were plated in 96-well microtiter dishes (6000 cells/well) in 200 μl RPMI 1640 medium containing 5% FBS and 50 μg/ml gentamicin and incubated overnight at 37° C. Compound dilutions were prepared in the same medium, at 5× final concentration, and 50 μl of the drug dilution was added to the cell-containing wells. For studies involving combinations of two drugs, serial dilutions of one compound were prepared in the presence of a fixed dose of a second compound. Alternatively, a checkerboard dilution series was employed. Cells were cultured for three days in the presence of the drugs. Untreated cells were included as controls. The percentage of surviving cells was determined using sulforhodamine B (SRB, Sigma-Aldrich, St Louis, Mo.), a protein binding dye. Cellular protein was precipitated in each well by the addition of 50 μl of 50% cold trichloroacetic acid. After 1 hour, the plates were washed extensively in water and dried. SRB dye reagent (0.4% SRB in 1% acetic acid, 80 μl per well) was added and plates were kept at room temperature for ten minutes. Plates were then washed thoroughly in 1% acetic acid and dried. Cell-associated dye was dissolved in 10 mM Tris (150 μl) and the absorbance was read at 540 nm in a microtiter plate reader. The concentration of compound that caused a fixed percentage inhibition of growth was determined by plotting cell survival (relative to untreated cells) against the compound dose.

[1] = Homo sapiens, HCT-116, 72 h, HCT116 cells

IC50 [1] [µg/mL] | Structure (SMILES) | high doses that inhibit the cells (cells somewhat resistant) (HCT 116 cells, CCI-779 alone) [µg/mL] | inhibition at 0.026 µg/mL (Homo sapiens, HCT-116, 72 h, HCT116 cells, 3 days, 0.026 μg/ml CCI-779 alone) [%] | inhibition at 2.08 µg/mL (Homo sapiens, HCT-116, 72 h, HCT116 cells, 3 days, 2.08 μg/ml CCI-779 alone, read-out: inhibition of growth when administered alone) [%]
4.3 | CO[C@H]1C[C@@H]2CC[C@@H](C)[C@@](O)(O2)C(=O)C(=O)N2CCCC[C@H]2C(=O)O[C@H]([C@H](C)C[C@@H]2CC[C@@H](OC(=O)C(C)(CO)CO)[C@H](OC)C2)CC(=O)[C@H](C)/C=C(\C)[C@@H](O)[C@@H](OC)C(=O)[C@H](C)C[C@H](C)/C=C/C=C/C=C/1C [CCI-779, rapamycin 42-ester with 3-hydroxy-2-(hydroxymethyl)-2-methylpropionic acid] | 5 to 10 | 36 | 41
0.31 | CCOc1cc2ncc(C#N)c(Nc3ccc(F)c(Cl)c3)c2cc1NC(=O)C=CCN(C)C [EKB-569, 4-dimethylamino-but-2-enoic acid [4-(3-chloro-4-fluoro-phenylamino)-3-cyano-7-ethoxy-quinolin-6-yl]-amide] | – | – | –
